Laboratory results taken from patent US20250154099A1, “PREPARATION METHOD OF 2-PHENYLINDOLE DERIVATIVES AND APPLICATION THEREOF” (Shihezi University, priority 2022, published 2025).
Values after ≈ are worked out from the molar mass of the structure shown. Read-outs that look alike come from different tables or passages of the source.

How the values were obtained:
[1] = system: Candida albicans BNCC186382; assay: MIC by microdilution method, sensitive Candida albicans; type: cell-based; settings: Candida albicans, read-out: MIC Candida albicans
From the text: (§1) Used bacteria: including drug-resistant bacteria and sensitive bacteria: the used sensitive strains include Cryptococcus neoformans BNCC225501, Candida albicans BNCC186382, Aspergillus fumigatus Fresenius BNCC338385, Escherichia coli BNCC336902, Staphylococcus aureus BNCC186335 and Pseudomonas aeruginosa Migula BNCC337940, and the used drug-resistant Candida albicans is clinically isolated azole multi-drug resistant Candida albicans (CA10) donated by Qianfoshan Hospital in Shandong Province. The strains are stored in normal saline containing 20% glycerol at −80° C. for a long time. Before operation, the strains are lined and transferred to a YPD solid plate, and subjected to static culture at 30° C. for 24 h; single colonies are selected and transferred to a YPD liquid medium, and cultured at 200 rpm at 30° C. overnight; and the overnight cultured bacterial solution is inoculated into a new YPD liquid medium at a ratio of about 1:100, and subjected to shaking culture at 200 rpm at 30° C. for 4 h so that Candida albicans is in a logarithmic phase.
(§2) Culture medium: the culture medium used by the microdilution method is RPMI-1640 culture medium (Gibco).
(§3) 1.2 Operation and results of detection of minimum inhibitory concentration (MIC) of the compounds and the azole drugs by the microdilution method: the MIC of the synthesized compound and the azole drug fluconazole for the standard strains is detected by the microdilution method according to fungal sensitivity detection method (M27-A3) established by the Clinical and Laboratory Standards Institute (CLSI). Specific steps are as follows: the prepared strain concentration is adjusted to 0.5-2.5×10^3 CFU/mL by using RPMI-1640 medium. 200 μL of bacterial solution containing the highest concentration of the drug to be detected is added into the first well of a 96-well plate, and 100 μL of blank bacterial solution without drug is added into each of the other wells; the bacterial solution is diluted to a series of concentration gradients by a double gradient dilution method; the well plate is subjected to static culture at constant temperature of 35° C. for 24 h; after the absorbance (OD) of each concentration gradient at 570 nm is detected by a microplate reader and the absorbance of a blank medium is subtracted, the growth rate=dosing hole value/control hole value ×100%, the inhibition rate=1−growth rate, and the minimum concentration with the inhibition rate greater than 80% is the minimum inhibitory concentration (MIC) value.

[2] = system: Cryptococcus neoformans BNCC225501; assay: MIC by microdilution method, sensitive Cryptococcus neoformans; type: cell-based; settings: Cryptococcus neoformans, read-out: MIC Cryptococcus neoformans
From the text: as §1, §2, §3

[3] = system: Aspergillus fumigatus Fresenius BNCC338385; assay: MIC by microdilution method, sensitive Aspergillus fumigatus Fresenius; type: cell-based; settings: Aspergillus fumigatus, 24 h, read-out: MIC Aspergillus fumigatus Fresenius
From the text: as §1, §2, §3

[4] = system: Staphylococcus aureus BNCC186335; assay: MIC by microdilution method, sensitive Staphylococcus aureus; type: cell-based; settings: read-out: MIC Staphylococcus aureus
From the text: as §1, §2, §3

[5] = system: Escherichia coli BNCC336902; assay: MIC by microdilution method, sensitive Escherichia coli; type: cell-based; settings: read-out: MIC Escherichia coli
From the text: as §1, §2, §3

[6] = system: Pseudomonas aeruginosa Migula BNCC337940; assay: MIC by microdilution method, sensitive Pseudomonas aeruginosa Migula; type: cell-based; settings: 24 h, read-out: MIC Pseudomonas aeruginosa Migula
From the text: as §1, §2, §3

[7] = system: Drug-resistant Candida albicans CA10; assay: MIC by microdilution method, drug-resistant Candida albicans CA10; type: cell-based; settings: clinically isolated azole multi-drug resistant strain CA10; 24 h
From the text: as §1, §2, §3

Candida albicans CA10 = assay: Checkerboard microdilution assay of compound combined with fluconazole, FICI model; type: cell-based; settings: for MIC of compound combined: compound concentration in combination with fluconazole; for MIC of compound combined / MIC of azole (fluconazole) combined: inhibition rate about 80%; for FICI: compound plus fluconazole; for MIC of azole (fluconazole) combined: fluconazole concentration in combination with the compound; for MIC: Candida albicans
Protocol: The concentration of Candida albicans CA10 is adjusted to 0.5-2.5×10^3 CFU/mL by using RPMI-1640 medium, and the diluted bacterial solution is used for preparing a working solution of the compound and the azole drug with double concentration gradient. 50 μl of working solution of double concentration of azole drugs and working solution of double concentration of the compound to be detected at each concentration gradient are added in the longitudinal (A-H) direction and transverse (1-12) direction of the 96-well plate respectively, so that the final drug concentration range of fluconazole is 4-64 μg/ml, and the drug concentration range of the compound is 256-16 μg/ml. The 96-well plate is cultured in a constant temperature incubator at 35° C. for 24 h. The amount of viable bacteria is detected with an XTT cell proliferation assay kit, and the absorbance of each well at 490 nm wavelength is detected by the microplate reader. Growth rate=dosing well value/control well value×100%, and inhibition rate=1−growth rate. The MIC when the inhibition rate is about 80% is a break point of the combination of two drugs.
The combination data of the compound and the azole drug collected by the checkerboard microdilution assay are analyzed by an FICI (fractional inhibitory concentration index) model, and the interaction effects are evaluated.
The FICI model can be expressed by the following formula: […]
Wherein: MICA and MICB are MIC values of drug A and drug B used separately, while MICAB and MICBA are the concentrations of drug A and drug B corresponding to the minimum effective dose of the combination of drug A and drug B.

[8] = system: RAW 264.7 murine macrophage cells; assay: MTT cytotoxicity test on RAW 264.7; type: cell-based, mouse; settings: for IC50: Mus musculus, RAW264.7, 24 h, read-out: IC50 RAW 264.7 cell viability
Protocol: 3.1.1 Cell line: RAW 264.7 murine macrophage cells are donated by Shihezi University College of Pharmacy, and cultured in a 37° C. constant temperature incubator with high glucose DMEM medium (Gibco), 10% FBS serum (Gibco) and 5% CO2, and subculturing and related experimental operation are conducted when cell fusion degree reaches about 70-80%.
3.1.2 Materials and reagents: fetal bovine serum (American BI company), DMEM high glucose medium (American Gibco company), penicillin-streptomycin solution (Shanghai Solarbio company), PBS buffer solution (American Gibco company), isopropyl alcohol (analytically pure), dimethyl sulfoxide (DMSO) (Shanghai Solarbio company), and MTT powder (Shanghai Solarbio company).
Logarithmic RAW 264.7 cells are taken; cell suspension is prepared with a complete medium; the concentration of the cell suspension is adjusted to about 5×10^4 cells/mL; 200 μl of cell suspension is added into each hole of the 96-well culture plate and cultured in 5% CO2 in an incubator at 37° C. for about 24 h until the cells grow to the cell wall (at density of 50%); the medium is absorbed by a 5 ml needle tube or negative pressure; RAW 264.7 is divided into a blank group, a solvent control group and a drug administration group; in the blank group, there is no cell, and a medium, MTT and DMSO are added; in the solvent control group, cells, the same concentration of drug dissolving media, culture solution, MTT and DMSO are added; in the drug administration group, medical solution for diluting the concentration gradient with serum-free medium (containing 1% PE) is added; each concentration shall set at least 3 complex wells; 100 μl of medical solution is added into each well; and the culture plate is continued to be incubated in the incubator for 24 h. […] 100 μl of DMSO is added into each well to dissolve formazan crystals, and shaken in a shaker for 10 min at low speed to fully dissolve the crystals. The absorbance (OD) value of each well at 490 nm is determined by the microplate reader, and the cell viability is calculated by the formula: Cell viability (%)=(OD drug administration group−OD blank group)/(OD solvent control group−OD blank group)× 100%.
OD values at 490 nm are determined by the experimental method in each group, and the data are subjected to one-way analysis of variance by Graphpad prism 8.0 software.

[9] = BNCC186382, sensitive strain, 35° C., 24 h, minimum concentration with inhibition rate greater than 80%
[10] = BNCC225501, sensitive strain, 35° C., 24 h, minimum concentration with inhibition rate greater than 80%
[11] = sensitive strain, 35° C., minimum concentration with inhibition rate greater than 80%
[12] = BNCC186335, sensitive strain, 35° C., 24 h, minimum concentration with inhibition rate greater than 80%
[13] = BNCC336902, sensitive strain, 35° C., 24 h, minimum concentration with inhibition rate greater than 80%
[14] = CA10, compound alone, read-out: MIC of compound used separately

MIC80 Drug-resistant Candida albicans CA10 [7]	MIC of compound combined (Candida albicans CA10; CA10)	MIC of azole (fluconazole) combined (Candida albicans CA10; CA10)	MIC [1, 9]	MIC [2, 10]	MIC [3, 11]	MIC [4, 12]	MIC [5, 13]	MIC [6, 11]	MIC (Candida albicans CA10; [14])	Compound	FICI (Candida albicans CA10; CA10)	IC50 [8]	toxicity to RAW 264.7 cells ([8]; 24 h)	also measured
256 µg/mL (≈ 1210 µM)	64 µg/mL	8 µg/mL	16 µg/mL (≈ 75.7 µM)	256 µg/mL (≈ 1210 µM)	16 µg/mL (≈ 75.7 µM)	32 µg/mL (≈ 151 µM)	16 µg/mL (≈ 75.7 µM)	256 µg/mL (≈ 1210 µM)	> 256 µg/mL	Fc1ccc2cc(-c3ccccc3)[nH]c2c1 [Compound 5]	0.313	12.5 µM	no obvious toxicity	cell proliferation of RAW 264.7 ([8]; 24 h, different concentrations): may inhibit cell proliferation in a concentration-dependent way
32 µg/mL (≈ 141 µM)	16 µg/mL	8 µg/mL	16 µg/mL (≈ 70.3 µM)	16 µg/mL (≈ 70.3 µM)	8 µg/mL (≈ 35.1 µM)	8 µg/mL (≈ 35.1 µM)	16 µg/mL (≈ 70.3 µM)	16 µg/mL (≈ 70.3 µM)	32 µg/mL	Clc1ccc2cc(-c3ccccc3)[nH]c2c1 [Compound 4]	0.563	100 µM	no obvious toxicity	sensitivity of clinical multi-drug resistant strain CA10 to the azole drug (Candida albicans CA10; combination with fluconazole): can improve the sensitivity

Compound	MIC80 Drug-resistant Candida albicans CA10 [7]	MIC of compound combined (Candida albicans CA10; CA10)	MIC of azole (fluconazole) combined (Candida albicans CA10; CA10)	MIC [1, 9]	MIC [2, 10]	MIC [3, 11]	MIC [4, 12]	MIC [5, 13]	MIC [6, 11]	MIC (Candida albicans CA10; [14])	FICI (Candida albicans CA10; CA10)	IC50 [8]	toxicity to RAW 264.7 cells ([8]; 24 h)	also measured
Cc1ccccc1-c1cc2ccccc2[nH]1 [Compound 2]	32 µg/mL (≈ 154 µM)	8 µg/mL	8 µg/mL								0.313	50 µM		MIC ([1]; BNCC186382, 24 h): 4 µg/mL (≈ 19.3 µM); MIC ([2]; BNCC225501, 24 h): 2 µg/mL (≈ 9.65 µM); MIC [3]: 16 µg/mL (≈ 77.2 µM); MIC ([4]; BNCC186335, 24 h): 8 µg/mL (≈ 38.6 µM); MIC ([5]; BNCC336902, 24 h): 8 µg/mL (≈ 38.6 µM); MIC [6]: 256 µg/mL (≈ 1240 µM); MIC (Candida albicans CA10; CA10, read-out: MIC of compound used separately): 32 µg/mL
